Assay results taken from US20240130988A1, “Use of stilbene compounds in the preparation of anti-tumor drugs” (Guangzhou AnHao Pharmaceutical Technology CO., LTD., priority 2022, published 2024).
Marks after values point to notes of the source that are not given here.

How the values were obtained:
[1] = tested on: LLC (mouse lung cancer cells); test: Enrichment of CD8+ cytotoxic T lymphocytes in tumor tissue, Lewis non-small cell lung cancer model of mice; assay type: in vivo; conditions: 400 mg/kg ip once a day for 10 days, flow cytometry
Procedure: LLC (mouse lung cancer cells) were a mouse Lewis lung cancer cells.
The modeling method for LLC cell lung cancer in mice was as follows:
LLC cells were cultured in the general medium containing 10% fetal bovine serum and 100 μg/mL of double antibody (penicillin±streptomycin), and then cultivated in a 37° C., 5% CO2 cell incubator for routine incubation. LLC cells, that had grown to logarithmic phase, were digested with 0.25% trypsin (containing EDTA) to form a cell suspension, which was centrifuged at 1000 rpm/min for 3 min. The supernatant was discarded, and cell precipitates were collected, that were resuspended in culture medium without serum and double antibody. The cell suspension was further centrifuged to adjust the volume under the same conditions with the aid of cell counting, so as to prepare a cell suspension at a concentration of […] was injected into the right abdomen of each mouse, to complete the inoculation of tumor cells. The tumor was allowed to grew about 10 days, and the volume reached around 100 mm^3, before the mice were treated with test compounds.
Drug preparation: compounds 1-13 of the present invention were respective prepared into an injection with injection water.
Experimental methods: The model mice with LLC cell lung cancer were treated by intraperitoneal administration of 400 mg/kg injection containing the compound of the present invention. The model mice were divided into a negative control group (model mice only receiving equal volume of injection water by intraperitoneal administration) and treatment groups (model mice receiving the injection prepared with the compound of the present invention by intraperitoneal administration). The intraperitoneal injection regimen was carried out by injecting once a day at the pre-determined time. Before administration, the mice were weighed, and then treated with the injection at a dosage of 10 mL/kg, After successive administration for 10 days, that is, on the 10th day after receiving treatment, the mice were sacrificed, and the subcutaneous tumors were stripped to detect the ratio of cytotoxic T lymphocyte antigen CD8^+ in tumor tissues of the negative group and the treatment group by flow cytometry.
CD8^+ tumor-infiltrating lymphocytes in tumor tissues were detected by flow cytometry. The specific steps were as follows:
The mice were sacrificed, and then the abdominal epidermis of the mice was cut open using ophthalmic scissors, to fully expose the subcutaneous tumors. The subcutaneous tumor tissues on the right side of the mouse's abdomen were gradually peeled off with tweezers and ophthalmic scissors. After rinsing with PBS, the stripped tumor tissues were cut into about 1 mm using ophthalmic scissors, and then placed in 3 mL of PBS buffer containing 100 μg/mL of hyaluronidase. A centrifuge tube containing a dispersed liquid was placed in a water bath and kept at 37° C. for 20 min. A pipette was used to blow and shake the digestive tumor tissues every 5 minutes to fully digest. The dispersed liquid containing undigested tumor tissues was filtered through a 70 μm stainless steel cell screen, and the remaining undigested tumor tissues were ground using a push rod of 20 mL syringe on 70 μm cell screen and rinsed 5 times with 1 mL of PBS while grinding. The cell suspension passing the cell screen was transferred to a 15 mL centrifuge tube, and centrifuged at 4000 rpm for 3 min. Then, cell precipitates were collected, to which was added 2 mL of red cell lysis buffer, and rested for 10 min, followed by centrifuging at 4000 rpm for 3 min. After washing with PBS, the cells were resuspended by adding 2-3 mL of PBS.
An appropriate amount of cell suspension was used as the sample for flow cytometry, and after counting, the cell suspension was adjusted to have a concentration of 5×10^6/mL. 100 μL of cell suspension was added to a test tube with a pipettor. […]

[2] = tested on: nonfusion human umbilical vein endothelial cells (HUVEC); test: TMT quantitative proteomics on nonfusion HUVEC; assay type: cell-based; conditions: 10 μM; for Differentially expressed proteins: more than 1.5 times or less than 0.67 times vs control; for Down-regulation / Up-regulation: number of proteins
Procedure: Nonfusion human umbilical vein endothelial cells (HUVEC) were used to simulate new tumor blood vessels, while confluent HUVECs were used to simulate normal blood vessels, to construct experimental models. Two different HUVECs were treated with the compound at the same dosage of 10 μM, to simulate the fusion cell state, and proteome samples were prepared. After preparation of peptide segments, the segments were labelled with TMT, and a quantitative proteomics analysis was carried out. The efficiency of TMT labeling was higher than 99.4%, and a total of 28372 peptide segments from 4934 proteins were characterized using a strict 1% FDR limit. Among them, 4909 quantifiable proteins were identified, indicating reliable quality. The nonfusion treatment groups and the fusion treatment groups were compared with their respective control groups, and the control group was used as a reference, with a significant difference of more than 1.5 times or less than 0.67 times as the protein score standard.
The total cell proteins of the samples in nonfusion cell groups and fusion cell groups were extracted separately, and 2 μg of protein samples were subjected to quality analysis, The quantitative proteomics experiments were carried out, and the protein concentration assay was performed by quantitative grayscale measurement.
Data analysis: The human protein database (Scientific name: Homo sapiens, 9606) was downloaded from UniProt, MaxQuant (v 1.5.5.1) search engine was used to search for the database. A total of 4934 proteins (4909 quantitative proteins) and 28372 peptide segments were identified by TMT quantitative proteomics experiments, with a labeling efficiency of more than 99%, and the complete digestion occupied 86.3%.

[3] = tested on: human liver cancer QGY7703; test: Human liver cancer QGY7703 transplanted tumor in nude mice; assay type: in vivo, BALB/C nude mice; parameters: key to RTV (d 18): RTV = Vt/Vo, tumor volume relative to volume at grouping (d1); conditions: QGY7703, 100 mg/kg iv × 14; for inhibition in vivo at 100 mg/kg: Mus musculus, QGY-7703, read-out: Tumor inhibitory rate %
Procedure: A human liver cancer QGY7703 model transplanted into nude mice was used in the experiment to investigate the anti-tumor effect of test compounds. The mice were intravenously injected at a dosage of 100 mg/kg for 14 days, and the tumor inhibition rate against human liver cancer QGY7703 was measured.
(§1) Preparation: The compound was prepared as the injection at the desired concentration with sterile normal saline, prior to administration.
Animal strain: BALB/C nude mice (SPF grade), weight: 19-21 g, gender: male. Number of animals in each treatment group: 8; number of animals in the control group: >12.
(§2) The tumor blocks of human liver cancer QGY7703 with good growth were cut into uniform small pieces of 3 mm under sterile conditions, and then subcutaneously inoculated into the right armpit of each mouse with a cannula. These mice were divided into 9 groups, 8 mice for each treatment group, while more than 12 mice were included in the control group.
(§3) 14 days after inoculation, the average volume of the tumor block was about 100 mm^3. The animals were regrouped based on the size of the tumor, and the animals with tumors that were too large and too small were sifted out. For each group, the average volume of tumors was basically the same, and then the mice were initially treated with test compounds. The mice in the treatment groups were intravenously injected once a day for 14 days, at a dosage of 0.1 mL/20 g body weight; the mice in the control group were given the same volume of sterile normal saline. From the 14th day of inoculation, the long diameter a (mm) of the tumor, together with the perpendicular short diameter b (mm), was measured using a digital electronic caliper, twice a week. The calculation formula of tumor volume is: TV=ab^2/2, and the formula for calculating the relative tumor volume is RTV=Vt/Vo, wherein Vo denotes the tumor volume measured when the mice were divided into groups (i.e. d1), and Vt is the tumor volume from each measurement.
(§4) The result determination is based on the following formula: […]

[4] = tested on: human gastric cancer MGC803; test: Human gastric cancer MGC803 transplanted tumor in nude mice; assay type: in vivo, BALB/C nude mice; conditions: MGC803, 200 mg/kg ip × 14
Procedure: A human gastric cancer MGC803 model transplanted into nude mice was used in the experiment to investigate the anti-tumor effect of test compounds.
as §1
Animal strain: BALB/C nude mice (SPF grade), weight: 19-21 g, gender: male.
Number of animals in each treatment group: 8; number of animals in the control group: >12.
as §2, with “gastric” for “liver”, “MGC803” for “QGY7703”
as §3, with “mice” for “mice in the treatment groups”, “intraperitoneally” for “intravenously”, “0.2” for “0.1”, “weight.” for “weight; the mice in the control group were given the same volume of sterile normal saline.”, “groups(i.e.” for “groups (i.e.”
as §4

[5] = tested on: LLC (mouse lung cancer cells); test: Enrichment of CD8+ cytotoxic T lymphocytes in tumor tissue, Lewis non-small cell lung cancer model of mice; assay type: in vivo; conditions: 400 mg/kg ip once a day for 10 days, CD8+ immunohistochemistry
human lung cancer A549 = test: Human lung cancer A549 transplanted tumors in nude mice; assay type: in vivo, BALB/C nude mice; conditions: A549, 400 mg/kg ig × 14
Procedure: In this experiment, a human lung cancer A549 model transplanted into nude mice was selected to study the anti-tumor effect of test compounds. The mice were treated at a dosage of 400 mg/kg by gavage for 14 days, and the tumor inhibition rate against human lung cancer A549 was measured.
Preparation: The compound was prepared as the solution at the desired concentration with distilled water, prior to administration.
Animal strain: BALB/C nude mice (SPF grade), weight: 19-21 g, gender: male. Number of animals in each treatment group: 8; Number of animals in the control group: >12.
Lung cancer A549 tumor blocks with good growth were chosen and cut into uniform small pieces of 3 mm under sterile conditions, and then subcutaneously inoculated into the right armpit of each mouse with a cannula. These mice were divided into 9 groups, 8 mice for each treatment group, while more than 12 mice were included in the control group.
14 days after inoculation, the average volume of the tumor mass was about 100 mm^3. The animals were regrouped based on the size of the tumor, and the mice with tumors that were too large and too small were eliminated. For each group, the average volume of tumors was basically the same, and then the mice were treated with test compounds. The mice in the treatment groups were administered once a day by gavage for 14 successive days, at a dosage of 0.5 mL/20 g body weight; the mice in the control group were given the same volume of physiological saline. From the 14th day of inoculation, the long diameter a (mm) of the tumor, together with the perpendicular short diameter b (mm), was measured using a digital electronic caliper, twice a week. The calculation formula of tumor volume is: TV=ab^2/2, and the formula for calculating the relative tumor volume is RTV=Vt/Vo, wherein Vo denotes the tumor volume measured when the mice were divided into groups (i.e. d1), and Vt is the tumor volume from each measurement.
as §4

SMILES | The ratio of CD8^+ in total immune cells of tumor tissues (%) [1] | Differentially expressed proteins [2] | Down-regulation [2] | Up-regulation [2] | inhibition in vivo at 100 mg/kg [3] | RTV (d 18) [3] | RTV (d 18) [4] | Tumor inhibitory rate % [4] | The ratio of distribution area in tumor tissues (%) [5] | RTV (d 22) (human lung cancer A549) | inhibition in vivo at 400 mg/kg (human lung cancer A549; Mus musculus, po, read-out: Tumor inhibitory rate %) | The ratio of CD8^+ in total immune cells of tumor tissues (%) ([1]; 400 mg/kg) | The ratio of distribution area in tumor tissues (%) ([5]; 400 mg/kg)
COc1cc(/C=C(/C(=O)O)c2cc(OC)c(OC)c(OC)c2)ccc1O [Compound 7, (E)-3-(4-hydroxy-3-methoxyphenyl)-2-(3,4,5-trimethoxyphenyl)acrylic acid] | 0.0774 ± 0.0115% | 289 | 281 | 8 | 64% | 4.63 ± 0.75 | 4.46 ± 0.62 | 61.28^## % | 6.653 ± 0.7791% | – | – | – | –
COc1cc(/C(=C\c2cc(O)c(OC)c(Cl)c2)C(=O)O)cc(OC)c1OC [Compound 5, (E)-3-(3-chloro-5-hydroxy-4-methoxyphenyl)-2-(3,4,5-trimethoxyphenyl) acrylic acid] | 0.0833 ± 0.0107% | 304 | 297 | 7 | – | – | – | – | 7.438 ± 0.7610% | 5.73 ± 1.25 | 51.2% | – | –
COc1ccc(/C=C(/C(=O)O)c2cc(OC)c(OC)c(OC)c2)c(O)c1O [Compound 2, (E)-3-(2,3-dihydroxy-4-methoxyphenyl)-2-(3,4,5-trimethoxylphenyl)acrylic acid] | – | 298 | 288 | 10 | 64.9% | 4.51 ± 0.58 | – | – | – | – | – | 0.0823 ± 0.0112% | 7.147 ± 0.7528%
